Test results: patent US12357652B2, “Formulations of phosphoramidate derivatives of nucleoside drugs” (priority 2015, dated 2025)

Test: Stability of 100 mg/ml NUC-3373 surfactant solution
Assay type: physicochemical
Description: The successful development of the Diluent Solution to enable preparation of the NUC-1031 aqueous formulation prompted its development for an aqueous formulation of NUC-3373. An aqueous NUC-3373 formulation was developed by adding 6.7 ml of a 250 mg/ml solution of NUC-3373 in 80% DMA:20% 0.9% saline to 10 ml diluent solution to generate a 100 mg/ml NUC-3373 surfactant solution (see Table 4), prior to subsequent dilution into an infusion bag.

Which results are given for C[C@H](NP(=O)(OC[C@H]1O[C@@H](n2cc(F)c(=O)[nH]c2=O)CC1O)Oc1cccc2ccccc12)C(=O)OCc1ccccc1 (stereo partly drawn) [NUC-3373, 5-fluoro-2′-deoxyuridine-5′-O-[1-naphthyl (benzoxy-L-alaninyl)] phosphate]?
Assay content (0 hours, 5° C.): 105.5 mg/mL; Purity (0 hours, 5° C.): 96.1 % area; pH (0 hours, 5° C.): 7.8; Assay content (0 hours, 20° C.): 104.8 mg/mL; Purity (0 hours, 20° C.): 96.2 % area; pH (0 hours, 20° C.): 7.8; Assay content (8 hours, 5° C.): 102.5 mg/mL; Purity (8 hours, 5° C.): 96.2 % area; pH (8 hours, 5° C.): 7.9; Assay content (8 hours, 20° C.): 100.7 mg/mL; Purity (8 hours, 20° C.): 96.1 % area; pH (8 hours, 20° C.): 7.8; Assay content (24 hours, 5° C.): 103.7 mg/mL; Purity (24 hours, 5° C.): 96.1 % area; pH (24 hours, 5° C.): 7.9; Assay content (24 hours, 20° C.): 99.1 mg/mL; Purity (24 hours, 20° C.): 96.1 % area; pH (24 hours, 20° C.): 7.8; Assay content (48 hours, 5° C.): 102.4 mg/mL; Purity (48 hours, 5° C.): 96.1 % area; pH (48 hours, 5° C.): 7.9; Assay content (48 hours, 20° C.): 99.4 mg/mL; Purity (48 hours, 20° C.): 96.2 % area; pH (48 hours, 20° C.): 7.9; Stability (for 48 hours at 5° C. and 20° C.): stable
